Source: article PMC6500773 (Psychopharmacology, 2018)
Like-named read-outs stand apart in the source and are kept apart here.

Key:
hDAT [1] = target: T1, hDAT (Homo sapiens, UniProt Q01959); test: Inhibition of [125I]RTI-55 binding, HEK-hDAT membranes; details: for fold decrease in hDAT affinity: compared to pentedrone
hSERT [2] = target: T2, hSERT (Homo sapiens, UniProt P31645); test: Inhibition of [125I]RTI-55 binding, HEK-hSERT membranes
hNET [3] = target: T3, hNET (Homo sapiens, UniProt P23975); test: biochemical; format: binding
T3 sequence (P23975 whole entry): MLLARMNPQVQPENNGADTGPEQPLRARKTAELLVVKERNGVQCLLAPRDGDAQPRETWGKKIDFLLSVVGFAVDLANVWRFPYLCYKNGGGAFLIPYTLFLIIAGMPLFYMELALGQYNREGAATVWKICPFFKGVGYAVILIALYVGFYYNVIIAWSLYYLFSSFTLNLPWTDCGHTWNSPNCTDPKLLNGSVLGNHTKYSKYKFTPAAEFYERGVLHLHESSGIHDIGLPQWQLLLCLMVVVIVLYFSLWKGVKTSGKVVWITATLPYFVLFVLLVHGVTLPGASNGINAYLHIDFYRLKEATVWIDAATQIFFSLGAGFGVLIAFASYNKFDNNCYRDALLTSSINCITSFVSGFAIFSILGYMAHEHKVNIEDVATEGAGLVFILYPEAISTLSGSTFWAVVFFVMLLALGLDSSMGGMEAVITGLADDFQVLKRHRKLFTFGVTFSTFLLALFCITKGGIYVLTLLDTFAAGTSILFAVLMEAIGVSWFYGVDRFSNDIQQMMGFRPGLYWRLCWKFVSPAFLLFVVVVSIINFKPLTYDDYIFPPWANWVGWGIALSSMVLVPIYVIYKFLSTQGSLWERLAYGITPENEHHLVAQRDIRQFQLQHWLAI

hDAT [4] = target: T1, hDAT; test: Inhibition of [3H]DA uptake by HEK-hDAT cells; format: cell-based; details: for Ratio DAT/SERT: 1/(DAT IC50) divided by 1/(SERT IC50), uptake, higher = more DAT selective
hSERT [5] = target: T2, hSERT; test: Inhibition of [3H]5-HT uptake by HEK-hSERT cells; format: cell-based; details: for selectivity for SERT over DAT (uptake potency): uptake inhibition potencies; for fold increase in hSERT uptake potency: compared to pentedrone
hNET [6] = target: T3, hNET; test: cell-based
hDAT [7] = target: T1, hDAT; test: Drug-induced release of preloaded [3H]DA from HEK-hDAT cells; format: cell-based; details: for releasing efficacy at hDAT: [3H]DA release; for % maximum release ± sem, hDAT [3H]DA: relative to maximal AUC induced by METH (1 or 10 μM)
hSERT [8] = target: T2, hSERT; test: Drug-induced release of preloaded [3H]5-HT from HEK-hSERT cells; format: cell-based; details: for releasing efficacy at hSERT: [3H]5-HT release; for % maximum release ± sem, hSERT [3H]5-HT: relative to maximal AUC induced by METH (0.3–1 mM)
hNET [9] = target: T3, hNET; test: Drug-induced release of preloaded [3H]NE from HEK-hNET cells; format: cell-based; details: for releasing efficacy at hNET: [3H]NE release; for EC50: read-out: Drug-induced release of [3H]neurotransmitter EC50 ± sem, hNET [3H]NE, HEK-hNET cells; for % maximum release ± sem, hNET [3H]NE: relative to maximal AUC induced by METH (0.3 or 1 μM)
[10] = read-out: Inhibition of [125I]RTI-55 binding Ki ± sem, hDAT, HEK-hDAT membranes
[11] = read-out: Inhibition of [125I]RTI-55 binding Ki ± sem, hNET, HEK-hNET membranes
[12] = read-out: Inhibition of [3H]neurotransmitter uptake IC50 ± sem, hNET [3H]NE, HEK-hNET cells

T2 sequence (P31645 whole entry): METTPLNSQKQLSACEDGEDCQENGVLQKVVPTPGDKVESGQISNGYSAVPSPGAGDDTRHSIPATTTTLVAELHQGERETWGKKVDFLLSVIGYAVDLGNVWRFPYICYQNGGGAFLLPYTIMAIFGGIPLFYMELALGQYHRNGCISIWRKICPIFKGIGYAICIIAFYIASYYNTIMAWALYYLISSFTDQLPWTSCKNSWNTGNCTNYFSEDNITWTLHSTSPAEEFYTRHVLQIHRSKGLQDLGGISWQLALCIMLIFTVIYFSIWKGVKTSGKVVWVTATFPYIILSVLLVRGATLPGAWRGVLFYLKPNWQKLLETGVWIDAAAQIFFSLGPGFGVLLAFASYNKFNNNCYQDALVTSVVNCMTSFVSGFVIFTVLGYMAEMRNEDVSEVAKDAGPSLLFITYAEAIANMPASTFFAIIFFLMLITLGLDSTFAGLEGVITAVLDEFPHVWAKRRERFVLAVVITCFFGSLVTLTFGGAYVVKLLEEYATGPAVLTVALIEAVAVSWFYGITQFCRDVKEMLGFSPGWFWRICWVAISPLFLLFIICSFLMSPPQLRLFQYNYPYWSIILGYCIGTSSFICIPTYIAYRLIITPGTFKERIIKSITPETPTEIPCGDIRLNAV
T1 sequence (Q01959 whole entry): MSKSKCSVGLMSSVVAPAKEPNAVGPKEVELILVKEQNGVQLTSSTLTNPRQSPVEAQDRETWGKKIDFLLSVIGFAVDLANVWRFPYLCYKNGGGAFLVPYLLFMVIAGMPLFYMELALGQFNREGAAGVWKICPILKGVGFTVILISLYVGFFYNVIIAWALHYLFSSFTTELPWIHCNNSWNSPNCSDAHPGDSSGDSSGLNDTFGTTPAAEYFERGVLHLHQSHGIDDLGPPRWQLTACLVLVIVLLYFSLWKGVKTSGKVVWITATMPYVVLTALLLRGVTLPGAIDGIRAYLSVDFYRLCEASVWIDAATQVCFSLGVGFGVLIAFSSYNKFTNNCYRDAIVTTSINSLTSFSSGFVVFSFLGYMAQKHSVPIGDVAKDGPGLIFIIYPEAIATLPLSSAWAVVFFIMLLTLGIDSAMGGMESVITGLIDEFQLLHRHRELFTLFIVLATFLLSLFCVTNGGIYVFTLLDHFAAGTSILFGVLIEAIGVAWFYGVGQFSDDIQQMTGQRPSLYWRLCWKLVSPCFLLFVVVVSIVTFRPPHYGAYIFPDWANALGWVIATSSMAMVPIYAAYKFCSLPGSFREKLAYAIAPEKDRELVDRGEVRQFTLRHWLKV

Row | SMILES | Ratio DAT/SERT (hDAT [4]) | Ki (hDAT [1]; [10]) | Ki (hNET [3]; [11]) | IC50 (hNET [6]; [12]) | % maximum release ± sem, hDAT [3H]DA (hDAT [7]) | EC50 (hNET [9]) | % maximum release ± sem, hNET [3H]NE (hNET [9]) | % maximum release ± sem, hSERT [3H]5-HT (hSERT [8]) | further results
1 | CCCCC(C(=O)c1ccc2c(c1)OCO2)N1CCCC1 (stereo not drawn) [3,4-MDPHP, 3,4-methylenedioxy-α–pyrrolidinohexanophenone] | 160 | – | – | – | – | – | – | – | Ki (hDAT [1]): 19.2 ± 5.1 nM; Ki (hSERT [2]): 2430 ± 510 nM; Ki (hNET [3]): 935 ± 93 nM; IC50 (hDAT [4]): 8.4 ± 2.2 nM; IC50 (hSERT [5]): 1340 ± 410 nM; IC50 (hNET [6]): 47 ± 10 nM
2 | CNC(C)C(=O)c1cccc(C)c1 (centres unmarked) [3-MMC, 3-methylmethcathinone] | 10 | 6330 ± 720 nM | 2850 ± 720 nM | 84 ± 23 nM | – | – | – | – | fold higher hSERT affinity (hSERT [2]; compared to MCAT): ~ 40 fold; fold higher hSERT uptake potency (hSERT [5]; compared to MCAT): 6.5 fold
3 | CCNC(C)C(=O)c1ccc(Cl)cc1 (centres unmarked) [4-CEC, 4-Cl-ethcathinone] | 0.39 | 4170 ± 530 nM | 16300 ± 5700 nM | 1720 ± 240 nM | 1.17 ± 0.05% | > 100000 nM | 5.9 ± 2.5% | – | selectivity for SERT over DAT (uptake potency) (hSERT [5]): 3 fold; releasing efficacy at hDAT (hDAT [7]): minimal releasing efficacy; releasing efficacy at hSERT (hSERT [8]): full releasing efficacy; releasing efficacy at hNET (hNET [9]): minimal releasing efficacy
4 | CCCC(NC)C(=O)c1ccc(Cl)cc1 (centres unmarked) [4-CPD, 4-chloro pentedrone] | 1.3 | 1620 ± 400 nM | 4540 ± 890 nM | 470 ± 140 nM | – | – | – | – | fold decrease in hDAT affinity (hDAT [1]): 4- to 5 fold; fold increase in hSERT uptake potency (hSERT [5]): 15- to 17 fold
5 | CC(C(=O)c1ccc(Cl)cc1)N1CCCC1 (stereo not drawn) [4-Cl-α-PPP, 4’-chloro-α-pyrrolidinopropiophenone] | 8.8 | – | – | – | – | – | – | – | Ki (hDAT [1]): 1300 ± 450 nM; Ki (hSERT [2]): 12700 ± 3200 nM; Ki (hNET [3]): 3580 ± 920 nM; IC50 (hDAT [4]): 730 ± 130 nM; IC50 (hSERT [5]): 6400 ± 1500 nM; IC50 (hNET [6]): 1420 ± 380 nM
6 | CCCC(C(=O)c1ccc(Cl)cc1)N1CCCC1 (stereo not drawn) [4-Cl-α-PVP, 4’-chloro-α–pyrrolidinopentiophenone] | 83 | 61 ± 15 nM | 281 ± 16 nM | 29.1 ± 6.7 nM | <1% | > 10000 nM | 9.4 ± 6.0% | <1% | releasing efficacy at hDAT (hDAT [7]): minimal to no releasing efficacy; releasing efficacy at hSERT (hSERT [8]): minimal to no releasing efficacy; releasing efficacy at hNET (hNET [9]): minimal to no releasing efficacy
7 | CCCC(C(=O)c1ccc(F)cc1)N1CCCC1 (stereo not drawn) [4-F-α-PVP, 4-fluoro-α–pyrrolidinopentiophenone] | 360 | 376 ± 70 nM | – | – | – | – | – | – | Ki (hNET [3]; read-out: Inhibition of [125I]RTI-55 binding Ki ± sem, hNET): 1100 nM; IC50 (hNET [6]; read-out: Inhibition of [3H]neurotransmitter uptake IC50 ± sem, hNET [3H]NE): 118 nM
8 | CCCC(NC)C(=O)c1ccc(C)cc1 (centres unmarked) [4-MPD, 4-methyl pentedrone] | – | 1450 ± 310 nM | 3390 ± 480 nM | 307 ± 61 nM | – | – | – | – | fold decrease in hDAT affinity (hDAT [1]): 4- to 5 fold; fold increase in hSERT uptake potency (hSERT [5]): 15- to 17 fold
9 | CC(N)Cc1ccc2ccoc2c1 (stereo not drawn) [6-APB, α-methyl-6-benzofuranethanamine] | 2.4 | 1040 ± 160 nM | 2450 ± 200 nM | 19.8 ± 4.4 nM | 68.2 ± 9.0% | 51 ± 12 nM | 69 ± 12% | 119 ± 16% | releasing efficacy at hSERT (hSERT [8]): fully efficacious releaser
10 | CCNC(C)Cc1ccc2ccoc2c1 (stereo not drawn) [6-EAPB, N-ethyl-α-methyl-6-benzofuranethanamine] | 1.4 | 89 ± 22 nM | 772 ± 44 nM | 42 ± 14 nM | – | – | – | – | –
11 | CNC(C)Cc1ccc2ccoc2c1 (stereo not drawn) [6-MAPB, N,α-dimethyl-6-benzofuranethanamine] | 9.5 | 599 ± 9.9 nM | 1480 ± 270 nM | 33.1 ± 2 nM | 40.6 ± 8.7% | 640 ± 210 nM | 60 ± 11% | 107.0 ± 2.3% | releasing efficacy at hSERT (hSERT [8]): fully efficacious
12 | CCC(C(=O)c1ccc2c(c1)OCO2)N(C)C (centres unmarked) [Dibutylone, bk-DMBDB] | >32 | 581 ± 76 nM | 8400 ± 2100 nM | 923 ± 44 nM | – | – | – | – | –
13 | CC(C(=O)c1ccc2c(c1)OCO2)N(C)C (centres unmarked) [Dimethylone, bk-MDDMA] | >4.1 | 4210 ± 270 nM | > 10000 nM | 4200 ± 880 nM | <1% | > 10000 nM | 9.9 ± 2.2% | <1% | –
14 | CNC(C)C(=O)c1ccccc1 (centres unmarked) [MCAT, methcathinone, reference compound] | 130 | 7520 ± 990 nM | 5960 ± 610 nM | 45.2 ± 4.2 nM | 79.0 ± 3.2% | 400 ± 120 nM | 75 ± 10% | 65.0 ± 0.6% | fold lower release potency at SERT (hSERT [8]; compared to release potency at NET and DAT): 50 fold
15 | CCCC(NCC)C(=O)c1ccc2c(c1)OCO2 (centres unmarked) [N-Et pentylone, N-ethyl pentylone] | 8.4 | 102 ± 15 nM | 2380 ± 620 nM | 114 ± 29 nM | <1% | – | 15.6 ± 8.4% | 7.2 ± 1.4% | fold increase in hDAT/hSERT selectivity (hDAT [4]; compared to pentylone): ~ 2 fold
16 | CCCCC(NCC)C(=O)c1ccccc1 (stereo not drawn) [N-Et-Hexedrone, α-ethylaminohexanophenone] | 100 | 171 ± 38 nM | 1260 ± 43 nM | 97.8 ± 8.3 nM | – | – | – | – | –
17 | CCCNC(CCC)C(=O)c1ccccc1 (stereo not drawn) [N-propyl pentedrone, α-propylaminopentiophenone] | 330 | 389 ± 67 nM | 3760 ± 820 nM | 306 ± 79 nM | – | – | – | – | –
18 | CCCNC(C)C(=O)c1ccc2c(c1)OCO2 (centres unmarked) [PRONE, 3,4-methylenedioxy-N-propylcathinone] | 0.95 | 6800 ± 1900 nM | 22500 ± 8500 nM | 6040 ± 890 nM | – | – | – | – | –
19 | CCCCCCC(C(=O)c1ccccc1)N1CCCC1 (centres unmarked) [PV9, 1-phenyl-2-(pyrrolidin-1-yl)octan-1-one] | >150 | – | – | – | – | – | – | – | Ki (hDAT [1]): 18 ± 3.7 nM; Ki (hSERT [2]): 2860 ± 430 nM; Ki (hNET [3]): 468 ± 33 nM; IC50 (hDAT [4]): 50.2 ± 6.6 nM; IC50 (hSERT [5]): > 7400 nM
20 | CCCC(C(=O)c1ccc2c(c1)CCCC2)N1CCCC1 (stereo not drawn) [TH-PVP, 3’,4’-tetramethylene-α-pyrrolidinovalerophenone] | 0.087 | 3090 ± 300 nM | 6950 ± 340 nM | 2130 ± 81 nM | <1% | > 10000 nM | <1% | <1% | selectivity for SERT over DAT (uptake potency) (hSERT [5]): 12 fold; releasing efficacy at hDAT (hDAT [7]): minimal to no releasing efficacy; releasing efficacy at hSERT (hSERT [8]): minimal to no releasing efficacy; releasing efficacy at hNET (hNET [9]): minimal to no releasing efficacy
21 | CCCC(C(=O)c1ccc2c(c1)OCO2)N(C)C (centres unmarked) [bk-DMBDP, N,N-dimethylpentylone] | 11 | 354 ± 73 nM | 2000 ± 140 nM | 212 ± 68 nM | – | – | – | – | –
22 | CCCC(NCC)C(=O)c1ccccc1 (stereo not drawn) [α-EPP, α-ethylaminopentiophenone] | 64 | 182 ± 22 nM | 700 ± 180 nM | 101 ± 24 nM | – | – | – | – | –
